Values joined by “and” are separate entries in the source; they are usually repeats but may differ in a detail not shown here. Equal values may be shown once.
Key:
CYP3A (pooled HLMs) = test: Reversible inhibition (RI) assay, tacrolimus metabolism in pooled HLMs; type: in vitro ADME, human; settings: Dixon plot
Protocol: (§1) The reactions started upon the addition of NADPH and were terminated after 10 min by adding 200 μL of ice-cooled acetonitrile containing 0.1 μM of ascomycin (internal standard). […] The reaction was also terminated with ice-cooled acetonitrile. All experiments were carried out in triplicates. […] The intersection of lines was used to calculate the Ki value.

CYP3A [1] = test: IC50 shift assay in pooled HLMs (testosterone 6β-hydroxylation); type: in vitro ADME; settings: human, pooled human liver microsomes, pH 7.4, probe testosterone (200 μM); for IC50 at 30 min / IC50: pooled HLMs; for IC50 at 30 min: 30 min preincubation with NADPH; for IC50: no preincubation
Protocol: Pooled HLMs were used in this assay to determine the IC50 shift and identify time-dependent inhibition. The experiment was divided into two groups, depending on preincubation status. […] In all samples, the final concentrations of organic solvents were not more than 1% (V/V). Schizandrol (A or B) was pre-incubated with the pooled HLMs and testosterone for 3 min at […]. In the groups without 30-minute preincubation, the reaction was started upon the addition of NADPH and terminated by 200 μL of ice-cooled methanol containing 0.315 μM of prednisolone (internal standard). […] Next, testosterone was added to initiate the reaction. The reaction was terminated with the same method. All experiments were carried out in triplicates.
The formation of 6β-hydroxytestosterone in a control group was used as a surrogate marker for remaining enzymes’ activity. […] IC50 shift value was determined by Equation (2). […] (2) IC50 shift=IC50 without NADPH preincubation/IC50 with NADPH preincubation

CYP3A [2] = test: Time-dependent inhibition (TDI) assay in pooled HLMs; type: in vitro ADME, human; settings: for kinact: human, pooled human liver microsomes, probe testosterone (200 μM), 6β-hydroxytestosterone formation
Protocol: (§2) A two-step protocol was followed to perform the general TDI assay. […] The reaction was initiated upon addition of NADPH (1 mM). At the designated time points (0, 5, 10, 20, or 30 min), an aliquot (20 μL) of the incubation mixture was transferred to a 180-microliter pre-warmed solution containing PBS (0.1 M), testosterone (200 μM) and NADPH (1 mM) for another 10-minute incubation. […] For the CYP3A5 experiment, CYP3cide and CYP3A5 * 1/*3 HLMs were pre-warmed for 3 min before the reaction initiation. […] All experiments were carried out in triplicates.
(§3) [I] stands for the inhibitor concentration. A high ratio of kinact over KI indicates great inhibitory potency. (3) kobs=kinact×[I]/KI+[I]

[3] = Intrinsic clearance in human liver microsomes (in-house data); type: in vitro ADME; settings: read-out: CLint,HLM
Source text: All physicochemical and in vitro pharmacokinetic parameters were obtained from the literature or predicted by Simcyp® Simulator (version 16, Certara, Sheffield, U.K.). The intrinsic clearance value of pooled HLMs and human tacrolimus PBPK model was retrieved from our previous publication. The models for CYP3A5 expressers/non-expressers were built by modifying our established model with intrinsic clearance values of each CYP isoform. With the inhibitory parameters acquired from our experiments, a DDI module was incorporated into the PBPK model of tacrolimus.

CYP3A4 = target: T1, CYP3A4 (Homo sapiens, UniProt P08684); test: Time-dependent inhibition (TDI) assay in CYP3A5 *3/*3 HLMs; type: in vitro ADME; settings: for KI / kinact/KI: CYP3A4, genotyped HLMs; for kinact: human, CYP3A5 *3/*3 genotyped human liver microsomes, probe testosterone (200 μM), 6β-hydroxytestosterone formation
T1 construct: replacing pooled HLMs with CYP3A5 * 3/*3 HLMs; tissue Transheep Co., Ltd. (Shanghai, China) lot: 0710253; host or cells: human liver microsomes, CYP3A5 *3/*3 genotype
Protocol: as §2, §3

[4] = set-up: method as in PMID 25392942; settings: after oral administration of WZC, healthy Chinese, plasma; cited from earlier work
CYP3A [5] = test: Reversible inhibition (RI) assay, tacrolimus metabolism in pooled HLMs; type: in vitro ADME, human; settings: human, pooled human liver microsomes, pH 7.4, probe tacrolimus (0.25, 0.5, 1, 2 μM), Dixon plot, tacrolimus substrate
Protocol: as §1

[6] = set-up: method as in PMID 32250458; settings: cited from earlier work
[7] = set-up: method as in PMID 24195812; settings: rats, oral administration of SZB; cited from earlier work
[8] = target: T2, CYP3A4 (CYP3A5 *3/*3 HLMs) (Homo sapiens, UniProt P08684); test: Reversible inhibition (RI) assay in genotyped HLMs; type: in vitro ADME; settings: Dixon plot, tacrolimus substrate
T2 construct: replacing pooled HLMs with CYP3A5 * 3/*3 HLMs; tissue Transheep Co., Ltd. (Shanghai, China) lot: 0710253; host or cells: human liver microsomes, CYP3A5 *3/*3 genotype
Protocol: (§4) The reactions started upon the addition of NADPH and were terminated after 10 min by adding 200 μL of ice-cooled acetonitrile containing 0.1 μM of ascomycin (internal standard). […] The reaction was also terminated with ice-cooled acetonitrile. All experiments were carried out in triplicates.
(§5) Linear regression implemented in GraphPad Prism was plotted with the reciprocal value of metabolic reaction rate (1/v) against inhibitor concentration. The intersection of lines was used to calculate the Ki value.

[9] = target: T3, CYP3A5 (CYP3A5 *1/*3 HLMs + CYP3cide) (Homo sapiens, UniProt P20815); test: Reversible inhibition (RI) assay in genotyped HLMs with CYP3cide; type: in vitro ADME; settings: Dixon plot, tacrolimus substrate
T3 construct: For the CYP3A5 experiment, CYP3cide and CYP3A5 * 1/*3 HLMs were pre-warmed; tissue Transheep Co., Ltd. (Shanghai, China) lot: 0710232; host or cells: human liver microsomes, CYP3A5 *1/*3 genotype, treated with CYP3cide
Protocol: as §4, §5

CYP3A5 = target: T4, CYP3A5 (Homo sapiens, UniProt P20815); test: Time-dependent inhibition (TDI) assay in CYP3A5 *1/*3 HLMs with CYP3cide; type: in vitro ADME
T4 construct: For the CYP3A5 experiment, CYP3cide and CYP3A5 * 1/*3 HLMs were pre-warmed; tissue Transheep Co., Ltd. (Shanghai, China) lot: 0710232; host or cells: human liver microsomes, CYP3A5 *1/*3 genotype, treated with CYP3cide
Protocol: as §2, with “incubation. The reaction was stopped with ice-cooled acetonitrile containing prednisolone (0.315 μM).” for “incubation.”
Kinetic parameters of the TDI (KI and kinact refer to the inhibitor concentration causing half-maximal inactivation and the maximal inactivation rate constant, respectively) were determined with Equation (3). kobs refers to the observed inactivation rate of the affected enzyme, determined by the negative slope of the linear regression. kinact is calculated with the negative reciprocal value of the straight line at the Y-intercept, while the interception on X-axis represents KI. [I] stands for the inhibitor concentration. A high ratio of kinact over KI indicates great inhibitory potency. (3) kobs=kinact×[I]/KI+[I]

T1 sequence (P08684 whole entry): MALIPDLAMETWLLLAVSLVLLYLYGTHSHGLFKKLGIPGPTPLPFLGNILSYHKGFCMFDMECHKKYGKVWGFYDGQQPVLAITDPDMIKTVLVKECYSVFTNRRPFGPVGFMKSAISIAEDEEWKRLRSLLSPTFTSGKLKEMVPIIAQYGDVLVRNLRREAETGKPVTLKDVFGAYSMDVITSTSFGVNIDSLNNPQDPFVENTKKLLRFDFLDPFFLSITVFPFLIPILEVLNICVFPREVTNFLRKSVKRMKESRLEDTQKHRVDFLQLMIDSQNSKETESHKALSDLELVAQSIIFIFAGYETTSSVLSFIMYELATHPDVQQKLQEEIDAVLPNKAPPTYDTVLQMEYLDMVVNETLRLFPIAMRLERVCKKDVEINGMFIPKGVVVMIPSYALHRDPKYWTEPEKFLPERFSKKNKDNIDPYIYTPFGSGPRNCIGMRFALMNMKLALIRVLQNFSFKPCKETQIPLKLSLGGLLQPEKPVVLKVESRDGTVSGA
T4 sequence (P20815 whole entry): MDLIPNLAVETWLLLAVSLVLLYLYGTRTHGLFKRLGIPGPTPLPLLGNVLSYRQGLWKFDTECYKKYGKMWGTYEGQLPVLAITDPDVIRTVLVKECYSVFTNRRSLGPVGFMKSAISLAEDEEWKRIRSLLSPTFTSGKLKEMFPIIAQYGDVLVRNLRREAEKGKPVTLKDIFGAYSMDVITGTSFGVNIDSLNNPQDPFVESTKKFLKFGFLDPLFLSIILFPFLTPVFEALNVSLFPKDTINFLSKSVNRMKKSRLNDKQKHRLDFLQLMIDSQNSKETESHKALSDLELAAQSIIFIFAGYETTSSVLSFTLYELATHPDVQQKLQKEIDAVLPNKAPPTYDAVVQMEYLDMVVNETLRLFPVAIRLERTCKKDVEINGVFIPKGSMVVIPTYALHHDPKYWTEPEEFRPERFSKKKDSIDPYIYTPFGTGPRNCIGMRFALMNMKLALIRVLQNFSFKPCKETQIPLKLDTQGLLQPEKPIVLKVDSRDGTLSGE

| IC50 at 30 min (CYP3A [1]) | IC50 (CYP3A [1]) | KI (CYP3A [2]) | kinact/KI (CYP3A [2]) | kinact (CYP3A [2]) | microsomal CLint [3] | KI (CYP3A4) | kinact/KI (CYP3A4) | kinact (CYP3A4) | SMILES | reversible inhibition on CYP3A (pattern) (CYP3A (pooled HLMs)) | AUC, observed [4] | Cmax, observed [4] | Tmax, observed [4] | further results |
| --- | --- | --- | --- | --- | --- | --- | --- | --- | --- | --- | --- | --- | --- | --- |
| 40.5 µM | 63.5 µM | 15.625 µM | 30.93 M⁻¹ s⁻¹ | 0.000483 s⁻¹ | 50 µL/min/mg | 15.38 µM | 26 M⁻¹ s⁻¹ | 0.0004 s⁻¹ | COc1cc2c(c(OC)c1OC)-c1c(cc(OC)c(OC)c1OC)C[C@](C)(O)[C@@H](C)C2 [SZA, Schizandrol A] | little reversible inhibition | 467.14 ng·h/mL | 111.37 ng/mL | 1.81 h | IC50 shift at 30 min (CYP3A [1]; IC50 without NADPH preincubation / IC50 with NADPH preincubation): 1.57 |
| 0.56 µM | 12 µM | 0.43 µM | 1705.5 M⁻¹ s⁻¹ | 0.000733 s⁻¹ | 4.5 µL/min/mg | 0.69 µM | 8937 M⁻¹ s⁻¹ | 0.00617 s⁻¹ | COc1cc2c(c(OC)c1OC)-c1c(cc3c(c1OC)OCO3)C[C@H](C)[C@@](C)(O)C2 [SZB, Schizandrol B] | competitive and reversible inhibition pattern | 242.97 ng·h/mL | 65.18 ng/mL | 1.13 h | Ki at 10 min (CYP3A [5]): 5.82 µM; increase in bosutinib exposure [6]: 200%; increase in systemic exposure of tacrolimus [7]: 598.4%; Ki [8]: 2.18 µM and 2.03 µM; Ki [9]: 2.03 µM and 2.18 µM; KI (CYP3A5; CYP3A5, genotyped HLMs): 0.5 µM; kinact/KI (CYP3A5; CYP3A5, genotyped HLMs): 300 M⁻¹ s⁻¹; kinact (CYP3A5; human, CYP3A5 *1/*3 genotyped human liver microsomes with CYP3cide, probe testosterone (200 μM), 6β-hydroxytestosterone formation, with CYP3cide (concentration not stated for this test)): 0.00015 s⁻¹ |

Reference: article PMC9103789 (International Journal of Molecular Sciences, 2022)
